Test results taken from patent US5434188A, “1-ether and 1-thioether-naphthalene-2-carboxamides as inhibitors of cell adhesion and as inhibitors of the activation of HIV” (Warner-Lambert Company, priority 1994, dated 1995).

Key:
[1] = system: human neutrophil adhesion to TNF-α stimulated human umbilical vein endothelial cells; assay: Modified method: inhibition of human neutrophil adhesion to TNF-α stimulated HUVEC (ECA), calcein-labeled neutrophils; assay type: cell-based; settings: for inhibition at 33 µM / inhibition at 100 µM: Neutrophil, neutrophils labeled with calcein; for inhibition at 33 µM: footnote c: 33 μM; for inhibition at 100 µM: footnote d: 100 μM
Protocol: MODIFIED METHOD FOR DETERMINING THE INHIBITION OF HUMAN NEUTROPHIL ADHESION TO TNF-α STIMULATED HUMAN UMBILICAL VEIN ENDOTHELIAL CELLS
Second passage HUVEC (Clonetics Corporation, San Diego, Calif., CC-2617) were seeded into Corning (Corning glass works, Corning, N.Y.) 96-well cell culture plates at approximately 5×10^3 cells/well and grown to confluency in supplemented endothelial basal medium (EBM, MCDB-131, Clonetics, 10 ng/mL EGF, 1 μg/mL hydrocortisone, 0.4% bovine brain extract, 5% Fetal Bovine Serum). One day prior to running the assay, typically 3 days postseeding, the cultures were re-fed with 0.2 mL/well supplemented EBM (S-EBM).
Preparation of Test Compounds
Test compounds were prepared as 10 mL stock solutions at a concentration of 1.0 mM. The compound were initially solubilized in 0.1 mL DMSO followed by the addition of 9.9 mL S-EBM. The drug preparations were then diluted in one step to a concentration of 66.6 μM. Solubilizations and dilutions were performed in polystyrene containers.
Recombinant human tumor necrosis factor-α(TNF, Genzyme, Boston, Mass., code TNF-H) was prepared at 400 U/mL in S-EBM. Stock TNF was prepared to 20,000 U/mL in Delbecco's phosphate buffered saline (PBS, Gibco, Grand Island, N.Y.) plus 0.1% BSA and stored at -70° C. HUVEC were washed one time with 0.2 mL warm unsupplemented EBM and then stimulated for 4 hours at 37° C. with 200 U/mL TNF in the presence of 33.3 μM test compound. This was accomplished by adding 0.1 mL of 400 U/mL TNF and 0.1 mL 66.6 μM test compound. These additions were done slowly as to not disrupt the HUVEC monolayer. Each compound was tested in six wells. Unstimulated (Vehicle control) and TNF-stimulated without test compound treatments were also run in each plate.
One hour prior to adding the neutrophils to the HUVEC, neutrophils (5×10^6/ mL) were labeled for 30 minutes at 37° C. with 5 μM calcein-AM (Molecular Probes, Eugene, Oreg.) in Hanks' balanced salt solution plus 0.45% BSA. Stock calcein was prepared to 5 mM in anhydrous DMSO and stored desiccated at -20° C. At the end of the incubation the cells were washed two times in cold HBSS and resuspended to a final concentration of 1×10^6 cells/mL in unsupplemented EBM.
Addition of Neutrophils to HUVEC
At the end of the 4-hour stimulation and immediately prior to the addition of the neutrophils to the HUVEC monolayer, the plates were washed with 0.2 mL warm unsupplemented EBM to remove TNF and drug. Neutrophils (1×10^5 cells) were slowly added to each of the treated wells and incubated for 30 minutes at 37° C. At the end of the incubation the plates were washed two times with 0.2 mL warm unsupplemented EBM followed by a final addition of 0.1 mL for plate scanning.
Determination of Relative Fluorescence
The relative fluorescence was determined using a Millipore Cytofluor 2300 system (excitation=480, emission=530, sensitivity=4).
Results were expressed as means of percent inhibition of TNF-stimulated adherence, using the following equation: [formula]
Some of these compounds were tested at concentrations of 33.3 μM, 10.0 μM, 3.3 μM, and 1.0 μM to determine IC50 values. Linear regression analysis of the means of the inhibition values were used to determine the IC50.

[2] = system: HIV-1 activation in OM-10.1 cells; settings: poster NCDDG/AIDS 1991; cited from earlier work
[3] = system: human neutrophil adhesion to TNF-α, IL-α, and LPS-stimulated human umbilical vein endothelial cells; assay: Inhibition of human neutrophil adhesion to stimulated human umbilical vein endothelial cells (ECA), 51Cr-labeled neutrophils; assay type: cell-based; settings: footnote b: 100 μM, neutrophils labeled with Cr
Description: METHOD FOR DETERMINING THE INHIBITION OF HUMAN NEUTROPHIL ADHESION TO TNF-α, IL-α, AND LPS-STIMULATED HUMAN UMBILICAL VEIN ENDOTHELIAL CELLS (ECA)
Neutrophils were isolated from anticoagulant-treated venous blood obtained from healthy human volunteers according to the method of Ferrante and Thong (J. Immunol. Methods 24:389-393 (1978)). The cell preparations consisted of greater than 98% neutrophils.
Second passage human umbilical vein endothelial cells (HUVEC) (Clonetics, San Diego, Calif.) were seeded into Falcon 24-well cell culture plates (Becton Dickinson, Lincoln Park, N.J.) at approximately 2×10^4 cells per well. The cells were grown to confluent monolayers in endothelial basal medium (EBM, Clonetics) supplemented with 5% fetal calf serum (Hyclone Laboratories, Logan, Utah), 10 ng/mL EGF, 1 μg/mL hydrocortisone, 0.4% bovine brain extract (Clonetics) in 5% CO2 at 37° C. […]
Stimulation of HUVEC with tumor necrosis factor-α (TNF-α) (Genzyme, Cambridge, Mass.), interleukin (IL-1α) (Genzyme) or E. coli 0111:B4 lipopolysaccharide (LPS) (Sigma) in the presence or absence of drug was initiated 4 hours prior to the addition of neutrophils. […] Lysates were collected and the radioactivity in each well was determined by gamma ray spectroscopy. […]

[4] = system: HIV-1 activation in OM-10.1 cells; assay: Inhibition of activation of latent HIV-1 in the OM-10.1 cell line (TNF-α induced); assay type: cell-based; settings: Human immunodeficiency virus 1, read-out: OM-10n (IC50 μM)
Description: The cellular pathways involved in mediating the activating signal from the plasma membrane to the integrated virus, resulting in HIV-1 expression, are much less clear. Recently, the development of a reliable and simple system for evaluating compounds that could prevent activation of latent HIV was reported at the National […] (NCDDG)/AIDS by P. Feorino, S. T. Butera, T. M. Folks, and R. F. Schinazi, Nov. 3-7, 1991. The assay system employed the OM-10.1 cell line, a unique chronically-infected promyelocytic clone which remains CD4+ until HIV-1 activation with tumor necrosis factor-α. The expression of CD4+ on the cell surface and the activity of reverse transcriptase are used as markers for quantitating viral expression. Alternatively, other HIV markers, such as protease activity, which are known to those of skill in the art can be used. OM-10.1 cells remain CD4^+ until viral activation and respond to tumor necrosis factor induction, and therefore, these cultures are used to conveniently and rapidly examine pharmacologics for an ability […] down modulation (decrease in expression of CD4^+ on the cell surface) and HIV-1 expression.
A variety of compounds known to have antiviral properties against either acutely or chronically infected cells were evaluated for their ability to inhibit HIV expression in these OM-10.1 cells. […]

[5] = system: CD4 down regulation and viral expression in HIV-infected cells; settings: Hamamoto, et al. 1989; cited from earlier work
[6] = system: ICAM-1; assay: ELISA of ICAM-1 on TNFα stimulated HUVEC; assay type: cell-based, human; settings: first of the two values
Protocol: (§1) Murine monoclonal anti-human ICAM-1 (R & D Systems, Cat No. BBA-4) or murine monoclonal anti-human E-selectin (R & D, Cat No. BBA-2) dissolved in DMEM/2%BSA were added to each well at 0.5 μg/mL and allowed to incubate at 37° C. for 2 hours. HUVEC monocultures were then washed 4 times with DMEM/2%BSA. A peroxidase conjugated sheep anti-mouse IgG (Cappel) was added (1:3,000 dilution) and allowed to incubate 1 hour at 37° C. The cells were then washed 4 times with DMEM. A color reagent (Biorad) was added to the fixed cells and incubated 15 minutes at room temperature. The reaction was stopped with a 2% oxalic acid solution and the absorbance read at 414 nm on a titertek plate reader.
(§2) Compounds were dissolved in DMSO at a concentration of […] and diluted with media to obtain final testing concentrations. HUVECs received compound dissolved in media 30 minutes before the TNFα challenge. The absorbance of non-stimulated HUVECs was subtracted from the absorbance values of TNFα stimulated cells before percent inhibition was determined. Percent inhibition was determined by comparing the absorbance of vehicle treated cells with drug treated cells. IC50 s were determined using linear regression analysis.

[7] = system: E-selectin; assay: ELISA of E-selectin on TNFα stimulated HUVEC; assay type: cell-based, human; settings: second of the two values
Protocol: as §1, §2

Molecule: COc1ccc2c(OC(C)C)c(C(N)=O)ccc2c1 [Example 6, 6-Methoxy-1-(1-methylethoxy)-2-naphthalenecarboxamide]
- inhibition at 33 µM [1]: 9%

Molecule: Cc1cn([C@H]2C[C@H](F)[C@@H](CO)O2)c(=O)[nH]c1=O [3'-fluoro-3'-deoxythymidine (FLT), 3'-fluoro-3'-deoxythymidine]
- inhibition of HIV-1 activation, in words [2]: modest inhibitors of the activation of HIV-1

Molecule: CC(C)Oc1ccc2ccc(C(N)=O)c(OC(C)C)c2c1 [Example 5, 1,7-Bis-(1-methylethoxy)-2-naphthalenecarboxamide]
- inhibition at 100 µM [3]: 45%
- IC50 [4]: 0.5 µM

Molecule: CN[C@@H]1C[C@H]2O[C@@](C)([C@@H]1OC)n1c3ccccc3c3c4c(c5c6ccccc6n2c5c31)C(=O)NC4 [Staurosporine, staurosporine]
- effect on CD4 down regulation and HIV expression, in words [5]: effective TPA inhibitor for both of these actions

Molecule: COc1ccc2ccc(C(N)=O)c(OC)c2c1 [Example 7, 1,7-Dimethoxy-2-naphthalenecarboximide]
- inhibition at 33 µM [1]: 15%

Molecule: CC(=O)N(O)CCCCCNC(=O)CCC(=O)N(O)CCCCCNC(=O)CCC(=O)N(O)CCCCCN [desferrioxamine]
- inhibition of HIV-1 activation, in words [2]: modest inhibitors of the activation of HIV-1

Molecule: CCCCCCCCCCCCCC(=O)O[C@@H]1[C@@H](C)[C@@]2(O)[C@@H](C=C(CO)C[C@]3(O)C(=O)C(C)=C[C@@H]23)[C@@H]2C(C)(C)[C@]12OC(C)=O [12-0-tetradecanoylphorbol-13-acetate]
- effect on CD4 down regulation and HIV expression, in words [5]: mediates CD4 down regulation and viral expression in HIV-infected cells

Molecule: COc1ccc2ccc(C(=O)NCc3ccccc3)c(OC(C)C)c2c1 [Example 4, 7-Methoxy-1-(1-methylethoxy)-N-(phenylmethyl)-2-naphthalenecarboxamide]
- inhibition at 100 µM [1]: 14%

Molecule: CCNC(=O)c1ccc2ccc(OC)cc2c1OC(C)C [Example 2, N-Ethyl-7-methoxy-1-(1-methylethoxy)-2-naphthalenecarboxamide]
- inhibition at 100 µM [1]: 73%

Molecule: interferon Y: modest inhibitor of the activation of HIV-1
- inhibition of HIV-1 activation, in words [2]: modest inhibitors of the activation of HIV-1

Molecule: COc1ccc2ccc(C(=O)NC(C)C)c(OC(C)C)c2c1 [Example 3, 7-Methoxy-1-(1-methylethoxy)-N-(1-methylethyl)-2-naphthalenecarboxamide]
- inhibition at 33 µM [1]: 64%

Molecule: COc1ccc2ccc(C(N)=O)c(OC(C)C)c2c1 [Example 1, 7-Methoxy-1-(1-methylethoxy)-2-naphthalenecarboxamide]
- IC50 ([1]; footnote a, neutrophil adhesion to stimulated HUVEC, neutrophil label not given): 11000 nM
- ICAM/ESEL % Inhib @ 30 μM: ICAM [6]: 77%
- ICAM/ESEL % Inhib @ 30 μM: ESEL [7]: 84%
- IC50 [4]: 2.5 µM
